# Values quoted from earlier work as cited in patent publication US20240016938A1, “METHODS FOR INCREASING THE BIOAVAILABILITY OF NUCLEOSIDE MEDICINAL AGENTS” (ZOGENIX MDS, INC., priority 2022, published 2024).
# Conditions: 600-mg oral dose; food intake immediately before oral dosing; cited from earlier work
smiles,measurement,value
"Cc1cn([C@@H]2C[C@@H](O)[C@H](CO)O2)c(=O)[nH]c1=O [telbivudine, 3-L-2-deoxythymidine]","absorption as measured by Cmax, Tmax, AUC(0-t), and AUC(0-infinity), fed vs fasting",not altered by food intake
